# According to US20240294541A1, “COMPOUNDS CONSTITUTING C20-MODIFIED SALINOMYCIN DERIVATIVES, A METHOD FOR OBTAINING THE SAME, A COMPOSITION CONTAINING THE SAME AND A USE OF SAID COMPOUNDS” (FILECLO SPOLKA Z OGRANICZONA ODPOWIEDZIALNOSCIA, priority 2021, published 2024):
# Read-outs that look alike come from different tables or passages of the source.
# How the values were obtained:
# Format in all cases: cell-based
# [1] = test system: cancer cells; assay: In vitro cytotoxic activity on the panel of cancer cell lines (MTT/SRB), general statements; settings: for anti-proliferative effect compared to that of the parent compound: Tables 3.1, 3.2, 4 and 5, parent compound salinomycin
# [2] = test system: PLC/PRF/5 (human liver cancer); assay: cells; settings: for PLC/PRF/5 SI: selectivity coefficient vs normal BALB/3T3 cells; for SI PLC/PRF/5: selectivity coefficient vs normal BALB/3T3 fibroblasts
# [3] = test system: NCI-H358 (human lung cancer); assay: cells; settings: Table 4; for IC50: NCI-H358 human lung cancer cells, read-out: IC50 (nM) NCI-H358; for SI NCI-H358: selectivity coefficient vs normal BALB/3T3 fibroblasts
# [4] = test system: SNU-16 (human gastric cancer); assay: cells; settings: for SNU-16 SI: selectivity coefficient vs normal BALB/3T3 cells; for SI SNU-16: selectivity coefficient vs normal BALB/3T3 fibroblasts
# [5] = test system: MIA PaCa-2 (human pancreatic cancer); assay: cells; settings: for MIA PaCa-2 SI: selectivity coefficient vs normal BALB/3T3 cells; for SI MIA PaCa-2: selectivity coefficient vs normal BALB/3T3 fibroblasts
# [6] = test system: Hs294T (human melanoma); assay: cells; settings: for IC50: Hs 294T; for Hs294T SI: selectivity coefficient vs normal BALB/3T3 cells; for SI Hs294T: selectivity coefficient vs normal BALB/3T3 fibroblasts
# [7] = test system: BALB/3T3 (normal mouse fibroblasts); assay: In vitro cytotoxicity, SRB assay, normal BALB/3T3 fibroblasts
# [8] = test system: NCI-H23 (human lung cancer); assay: In vitro cytotoxicity, SRB assay, NCI-H23; settings: for IC50: Homo sapiens, NCI-H23, 72 h with compound, SRB, n/a = non-active compound, read-out: NCI-H23 IC50; for NCI-H23 SI: selectivity coefficient vs normal BALB/3T3 cells
# [9] = test system: A375 (human melanoma); assay: In vitro cytotoxicity, SRB assay, A375; settings: for IC50: Homo sapiens, A-375, 72 h with compound, SRB, n/a = non-active compound, read-out: A375 IC50; for A375 SI: selectivity coefficient vs normal BALB/3T3 cells
# [10] = test system: KG-1 (human acute myeloid leukaemia); assay: In vitro cytotoxicity, MTT assay, KG-1; settings: for IC50: Homo sapiens, 72 h with compound, MTT, n/a = non-active compound; for KG-1 SI: selectivity coefficient vs normal BALB/3T3 cells
# [11] = test system: PFSK-1 (malignant primitive neuroectodermal tumour); assay: In vitro cytotoxicity, SRB assay, PFSK-1; settings: for IC50: Homo sapiens, PFSK-1, 72 h with compound, SRB, n/a = non-active compound, read-out: PFSK-1 IC50; for PFSK-1 SI: selectivity coefficient vs normal BALB/3T3 cells
# [12] = test system: A2780 (human ovarian cancer); assay: In vitro cytotoxicity, SRB assay, A2780; settings: for IC50: Homo sapiens, A2780, 72 h with compound, SRB, n/a = non-active compound, read-out: A2780 IC50; for A2780 SI: selectivity coefficient vs normal BALB/3T3 cells
# [13] = test system: A2780Cis (cisplatin-resistant human ovarian cancer); assay: In vitro cytotoxicity, SRB assay, A2780Cis; settings: for IC50: Homo sapiens, A2780cis
# [14] = test system: MV-4-11 (human biphenotypic leukaemia); assay: In vitro cytotoxicity, MTT assay, MV-4-11; settings: for IC50: Homo sapiens, MV4-11, read-out: IC50 (nM) MV4-11
# [15] = Table 4, PLC/PRF/5 human liver cancer cells, read-out: IC50 (nM) PLC/PRF/5
# [16] = Table 4, SNU-16 human gastric cancer cells, read-out: IC50 (nM) SNU-16
# [17] = Table 4, MIA PaCa-2 human pancreatic cancer cells, read-out: IC50 (nM) MIA PaCa-2
# [18] = Table 4, Hs294T human melanoma cells, read-out: IC50 (nM) Hs294T
# [19] = Mus musculus, BALB/3T3, normal cells, 72 h with compound, SRB, n/a = non-active compound, read-out: BALB/3T3 IC50
# [20] = Homo sapiens, PLC-PRF-5, 72 h with compound, SRB, n/a = non-active compound, read-out: PLC/PRF/5 IC50
# [21] = 72 h, read-out: A2780Cis IC50 (nM)
# [22] = Homo sapiens, SNU-16, 72 h with compound, MTT, n/a = non-active compound, read-out: SNU-16 IC50
# [23] = Homo sapiens, MIA PaCa-2, 72 h with compound, SRB, n/a = non-active compound, read-out: MIA PaCa-2 IC50
# [24] = Homo sapiens, 72 h with compound, SRB, n/a = non-active compound, read-out: Hs294T IC50
# [25] = Table 4, BALB/3T3 normal mouse fibroblasts, read-out: IC50 (nM) BALB3T3 normal cells
Compound,anti-proliferative effect compared to that of the parent compound [1],"IC50 [2, 15] [nM]",IC50 [3] [nM],"IC50 [4, 16] [nM]","IC50 [5, 17] [nM]","IC50 [6, 18] [nM]","IC50 [7, 19] [nM]",IC50 [8] [nM],NCI-H23 SI [8],IC50 [9] [nM],A375 SI [9],IC50 [10] [nM],KG-1 SI [10],IC50 [11] [nM],PFSK-1 SI [11],IC50 [12] [nM],A2780 SI [12],"IC50 [2, 20] [nM]",SI A2780Cis [13],IC50 ([13]; read-out: IC50 (nM) A2780Cis) [nM],further results
CCCOC(=O)N[C@@H]1C=C[C@]2(O[C@H]([C@@H](CC)C(=O)[C@@H](C)[C@@H](O)[C@H](C)[C@@H]3O[C@@H]([C@@H](CC)C(=O)O)CC[C@@H]3C)[C@@H](C)C[C@H]2C)O[C@@]12CC[C@@](C)([C@H]1CC[C@](O)(CC)[C@H](C)O1)O2 [FLC-00424-1•Na],several times more potent compared to that of the parent compound,5.01,48.7,220,38.4,685,–,–,–,–,–,–,–,–,–,–,–,–,–,–,–
CC[C@@H](C(=O)[C@@H](C)[C@@H](O)[C@H](C)[C@@H]1O[C@@H]([C@@H](CC)C(=O)O)CC[C@@H]1C)[C@H]1O[C@]2(C=C[C@@H](NC(=O)Nc3ccccc3)[C@]3(CC[C@@](C)([C@H]4CC[C@](O)(CC)[C@H](C)O4)O3)O2)[C@H](C)C[C@@H]1C [FLC-00374-1],several times more potent compared to that of the parent compound,–,–,–,–,–,70.5,2.92,24.1,34.2,2.1,12.5,5.6,3.83,18.4,0.45,156.6,8.83,671.0,0.11,"IC50 ([7]; Table 5, BALB/3T3 normal mouse fibroblasts, read-out: IC50 (nM) BALB3T3 normal cells): 70.5 nM; biological properties (IC50, SI) compared to the corresponding epi compounds ([1]; table 5 comparative examples, retained vs inverted C20 configuration): improved biological properties compared to their counterparts with a configuration conversion; PLC/PRF/5 SI [2]: 8.0; A2780Cis RI [13]: 0.2; A2780Cis SI [13]: 671.0; IC50 [13, 21]: 0.11 nM; IC50 [4, 22]: 4.03 nM; SNU-16 SI [4]: 17.5; IC50 [5, 23]: 28.7 nM; MIA PaCa-2 SI [5]: 2.5; IC50 [6, 24]: 73.1 nM; Hs294T SI [6]: 1.0"
CC[C@@H](C(=O)[C@@H](C)[C@@H](O)[C@H](C)[C@@H]1O[C@@H]([C@@H](CC)C(=O)O)CC[C@@H]1C)[C@H]1O[C@]2(C=C[C@@H](NC(=O)NC3CCC3)[C@]3(CC[C@@](C)([C@H]4CC[C@](O)(CC)[C@H](C)O4)O3)O2)[C@H](C)C[C@@H]1C [FLC-00341-1 Na],several times more potent compared to that of the parent compound,–,–,–,–,–,96.2,318,0.3,293,0.3,45.9,2.1,51.6,1.9,1.62,59.2,54.5,–,–,"PLC/PRF/5 SI [2]: 1.8; A2780Cis RI [13]: 0.8; A2780Cis SI [13]: 73.9; IC50 [13, 21]: 1.3 nM; IC50 [4, 22]: 27.1 nM; SNU-16 SI [4]: 3.5; IC50 [5, 23]: 55.4 nM; MIA PaCa-2 SI [5]: 1.7; IC50 [6, 24]: 1640 nM; Hs294T SI [6]: 0.1"
CC[C@@H](C(=O)[C@@H](C)[C@@H](O)[C@H](C)[C@@H]1O[C@@H]([C@@H](CC)C(=O)O)CC[C@@H]1C)[C@H]1O[C@]2(C=C[C@@H](NC(=O)OCC(F)F)[C@]3(CC[C@@](C)([C@H]4CC[C@](O)(CC)[C@H](C)O4)O3)O2)[C@H](C)C[C@@H]1C [FLC-00446-1•Na],several times more potent compared to that of the parent compound,37.9,50.8,262,26.8,189,–,–,–,–,–,–,–,–,–,–,–,–,294.5,0.71,"IC50 [7, 25]: 209 nM; SI PLC/PRF/5 ([2]; Table 4): 5.5; SI NCI-H358 [3]: 4.12; SI SNU-16 ([4]; Table 4): 0.8; SI MIA PaCa-2 ([5]; Table 4): 7.8; SI Hs294T ([6]; Table 4): 1.1; SI MV4-11 [14]: 298.7; IC50 [14]: 0.7 nM"
CC[C@@H](C(=O)[C@@H](C)[C@@H](O)[C@H](C)[C@@H]1O[C@@H]([C@@H](CC)C(=O)O)CC[C@@H]1C)[C@H]1O[C@]2(C=C[C@@H](NC(=O)C(=O)NCCc3ccccc3)[C@]3(CC[C@@](C)([C@H]4CC[C@](O)(CC)[C@H](C)O4)O3)O2)[C@H](C)C[C@@H]1C [FLC-00457-1•Na],several times more potent compared to that of the parent compound,122,446,551,53.7,2530,–,–,–,–,–,–,–,–,–,–,–,–,76.0,9.66,"IC50 [7, 25]: 734 nM; SI PLC/PRF/5 ([2]; Table 4): 6.0; SI NCI-H358 [3]: 1.65; SI SNU-16 ([4]; Table 4): 1.3; SI MIA PaCa-2 ([5]; Table 4): 13.7; SI Hs294T ([6]; Table 4): 0.3; SI MV4-11 [14]: 40.7; IC50 [14]: 18 nM"
